The source of these data is patent publication US12029728B2, “Small molecules with anti-protozoan activity” (New Mexico Tech University Research Park Corporation, priority 2018, dated 2024).

In assay [1] the test system is T. cruzi-infected ARPE cells. Description: Treatment of T. cruzi-infected ARPE cells, imaging. The assay is classed as cell-based, Trypanosoma cruzi. The protocol:
Four confocal dishes were prepared with 10,000 ARPE cells, which were adhered overnight at 37° C. The four dishes were ARPE control cells, non-infected but 5 μM Compound 2-treated cells, non-treated but infected cells, and infected cells treated with 5 μM Compound 2. For the infected dishes, ARPE media was removed and replaced with 2 mL of infectious amastigotes and trypomastigotes from the ARPE passaged plate. The dishes were then incubated for 2 hours at 37° C. The treated dishes were incubated with 5 μM Compound 2 for 5 days at 37° C., while untreated dishes were incubated in fresh media without Compound 2 for 5 days at 37° C. After the 5-day period, cells were washed 3 times in ARPE media and fixed with 1 mL 4% paraformaldehyde. Cells were visualized using an EVOS cell imaging system. Amastigotes appeared as small, dense, and mostly birefringent in images.
The experiment above was repeated using 1 μM Compound 2.
Four confocal dishes with 10,000 ARPE cells were prepared and adhered overnight at 37° C. The four dishes were: 1) ARPE control cells; 2) non-infected cells treated with 1 μM Compound 2; 3) untreated infected cells; and 4) T. cruzi-infected cells treated with 1 μM Compound 2. For the infected dishes, ARPE media was removed and replaced with 2 mL of infectious amastigotes and trypomastigotes expressing tdTomato (from ARPE passaged plate). The dishes were then incubated overnight for 7 days at 37° C. The untreated dishes were incubated in fresh media without Compound 2 for 7 days at 37° C. After the 7-day incubation period, cells were washed 3 times in ARPE media and fixed with 1 mL 4% paraformaldehyde. tdTomato fluorescence, which is indicative of viable T. cruzi, was then observed via fluorescence microscopy.
ARPE cells were plated in confocal dishes (20,000 cells per dish) and incubated overnight at 37° C. Cells were infected with T. cruzi by incubating cells with T. cruzi amastigotes and trypomastigotes expressing tdTomato (˜2×10^5 cells in total) for 24 hours at 37° C. Uninfected cells served as controls. Following the T. cruzi incubation period, extracellular parasites were removed, and the medium was replaced with DMEM/F12 culture media with or without 1 μM Compound 2. The cells were incubated further for 24 hours at 37° C. Cells were then treated two more times with fresh DMEM/F12 culture media with or without 1 μM Compound 2 and incubated for 24 hours at 37° C. Following fixation of cells in 4% paraformaldehyde, plates were imaged for tdTomato fluorescence, which is indicative of viable T. cruzi, such that the effects of repeated Compound 2 treatment could be compared to a single treatment with Compound 2.
ARPE cells were plated in confocal dishes (20,000 cells per dish) and incubated overnight at 37° C. Cells were infected with T. cruzi by incubating cells with T. cruzi amastigotes and trypomastigotes expressing tdTomato (˜2×10^5 cells in total) for 24 hours at 37° C. before washing dishes three times with DMEM/F12 culture media. Uninfected plates served as controls. The dishes were then treated with 2 μM Compound 2 or left untreated as a control and incubated further for 5 days at 37° C. The treated dish received a single treatment of Compound 2 on day 1. Dishes were washed twice with DMEM/F12 media and fixed in 4% paraformaldehyde before being imaged using confocal microscopy. […] The other Compound 2 dishes that were not incubated with T. cruzi a second time were used as controls. Following fixation of cells in 4% paraformaldehyde, tdTomato fluorescence of the cells was assessed using confocal microscopy.
ARPE cells were plated in confocal dishes (20,000 cells per dish) and incubated overnight at 37° C. Dishes were incubated with T. cruzi amastigotes and trypomastigotes expressing tdTomato (˜2×10^5 cells) for 48 hours at 37° C. Untreated cells served as controls. Cells were then washed 3 times with cell medium, treated with 5 μM Compound 2 or left untreated as a control and incubated further for 2 days at 37° C. […]

Assay [2] concerns T. cruzi epimastigotes. Description: T. cruzi epimastigote toxicity, visually assessed. The assay is classed as cell-based, Trypanosoma cruzi. Particulars: 48 hours at 30° C.; for killing at 100 µM: Trypanosoma cruzi, epimastigotes, read-out: T. cruzi death @ 100 μM. The protocol:
A 1:20 working dilution of T. cruzi epimastigotes was prepared in LIT1029 medium from a saturated (˜4×10^6 cells/mL) culture. 100 μL of the 1:20 working dilution was plated, and the epimastigotes were incubated with a compound of the disclosure at varying concentrations for 48 hours at 30° C. Following T. cruzi epimastigote treatment with a compound of the disclosure, the toxicity of compounds towards T. cruzi epimastigotes was visually assessed.

In assay [3] the test system is T. cruzi amastigotes and trypomastigotes. Description: Viability of tdTomato T. cruzi amastigotes and trypomastigotes, fluorescence. The assay is classed as cell-based, Trypanosoma cruzi. Conditions: 25 μM, 48 hours at 37° C. The protocol:
The viability of a mixture of T. cruzi amastigotes and trypomastigotes after exposure to 25 μM of the compounds of the disclosure was determined. 2×10^5 parasites/100 μL were plated in 96-well plates. Parasites expressing tdTomato were used to assess parasite viability using fluorescence measurements. Parasites were incubated with 25 μM of the compounds of the disclosure for 48 hours at 37° C. After the incubation period, the viability of amastigotes and trypomastigotes was assessed by measuring the fluorescence intensity at 510 nm-590 nm using a Tecan plate reader, where the presence of fluorescence indicated viable amastigotes/trypomastigotes.

In a further assay the test system is L. major promastigotes. The assay can be described thus: L. major promastigote viability, propidium iodide flow cytometry. Conditions: 50 μM, 48 hours at 24° C. The format is cell-based, Leishmania major. How it is done:
5×10^5 L. major promastigotes were treated with vehicle control (DMSO), […], 5 μM Compound 5, 50 μM Compound 2, 50 μM Compound 5, or […] for 48 hours at 24° C. Promastigote viability was then assessed via a propidium iodide flow cytometry assay. Propidium iodide is only taken up by dead cells, and the presence of fluorescence in a promastigote sample reflects compound efficacy.
(In general: A flow cytometer gives signals particle by particle.)

A further assay relates to T. cruzi trypomastigotes. The assay can be described thus: ATP viability assay, reference drugs, trypomastigotes. The format is cell-based. Conditions: Trypanosoma cruzi, 48 hours at 37° C. How it is done:
(§1) T. cruzi epimastigotes, amastigotes, or trypomastigotes were plated at 2×10^5 cells per well in a 96 well plate. Plated epimastigotes were prepared in LIT1029 medium, while amastigotes and trypomastigotes were collected after being passaged in ARPE cells. T. cruzi cells were treated with 0 μM, 0.39 μM, 0.78 μM, 1.56 μM, 3.125 μM, 6.25 μM, 12.5 μM, 25 μM, 50 μM, or 100 μM of nifurtimox for 48 hours at 37° C. After treatment with nifurtimox, T. cruzi viability was assessed via an ATP assay. An increase in RLU indicated the presence of ATP and viable cells.
(§2) T. cruzi epimastigotes, amastigotes, or trypomastigotes were plated at 2×10^5 cells per well in a 96 well plate. Plated epimastigotes were prepared in LIT1029 medium, while amastigotes and trypomastigotes were collected after being passaged in ARPE cells. T. cruzi cells were treated with 0 μM, 0.39 μM, 0.78 μM, 1.56 μM, 3.125 μM, 6.25 μM, 12.5 μM, 25 μM, 50 μM, or 100 μM of benznidazole for 48 hours at 37° C. After treatment with benznidazole, T. cruzi viability was assessed via an ATP assay. An increase in RLUs indicated the presence of ATP and viable cells.

Assay [4] concerns T. cruzi epimastigotes. Description: ATP viability assay, reference drugs, epimastigotes. The format is cell-based. Conditions: Trypanosoma cruzi, 48 hours at 37° C. The protocol:
as §1, §2

Another assay concerns T. cruzi amastigotes. Description: ATP viability assay, reference drugs, amastigotes. The assay is classed as cell-based. Conditions: Trypanosoma cruzi, 48 hours at 37° C. The protocol: as §1, §2

Molecules are shown by their SMILES. ≈ marks a conversion by molar mass, not a printed value.

Consider `O=C(NO)C(c1ccccc1)c1c(-c2ccccc2)[nH]c2ccccc12` (stereo not drawn) [Compound 1, N-hydroxy-2-phenyl-2-(2-phenyl-1H-indol-3-yl)acetamide], for which, in assay [1] (10 μM once per day for 2 days), the “number of intracellular parasites in ARPE culture” value is “decreased the number of intracellular parasites”. Moreover, in the assay with T. cruzi epimastigotes [2], the “Concentration at which T. cruzi epimastigote death is greater than or equal to ~99%” value (from here on “Concentration … to ~99%”) was found to be 100 µM and the killing at 100 µM came out at 100%. For the same compound, the “toxicity to T. cruzi amastigotes and trypomastigotes” value in assay [3] was “most toxic”.

With `Cc1[nH]c2ccccc2c1C(C(=O)NO)c1ccccc1` (stereo not drawn) [Compound 3, N-hydroxy-2-(2-methyl-1H-indol-3-yl)-2-phenylacetamide], the killing at 100 µM in the assay with T. cruzi epimastigotes [2] was 0%.

Take `O=C(NO)C(c1ccccc1)c1c(-c2cccc3ccccc23)[nH]c2c1ccc1ccccc12` (stereo not drawn) [Compound 4, N-hydroxy-2-(2-(naphthalen-1-yl)-1H-benzo[g]indol-3-yl)-2-phenylacetamide]: the killing at 100 µM with T. cruzi epimastigotes [2] stood at 0%.

For `CC(C)c1ccc(C(C(=O)NO)c2c(-c3ccc4ccccc4c3)[nH]c3ccccc23)cc1` (stereo not drawn) [Compound 5, N-hydroxy-2-(4-isopropylphenyl)-2-(2-(naphthalen-2-yl)-1H-indol-3-yl)acetamide], the “efficacy on L. major promastigote survival” value in the assay on L. major promastigotes is given as “higher efficacy than MTF or the vehicle control”.

For `COc1ccc(C(C(=O)NO)c2c(-c3ccc4ccccc4c3)[nH]c3ccccc23)cc1` (stereo not drawn) [Compound 6, N-hydroxy-2-(4-methoxyphenyl)-2-(2-(naphthalen-2-yl)-1H-indol-3-yl)acetamide], the killing at 100 µM in the assay with T. cruzi epimastigotes [2] came out at 0%.

With `NC(=O)C(c1ccccc1)c1c(-c2ccc3ccccc3c2)[nH]c2ccccc12` (stereo not drawn) [Compound 8, 2-(2-(naphthalen-2-yl)-1H-indol-3-yl)-2-phenylacetamide], in the assay with T. cruzi epimastigotes [2], the “Concentration … to ~99%” value was 50 µM and the killing at 100 µM was 100%.

Take `N#CC(c1ccccc1)c1c(-c2ccc3ccccc3c2)[nH]c2ccccc12` (stereo not drawn) [Compound 9, 2-(2-(naphthalen-2-yl)-1H-indol-3-yl)-2-phenylacetonitrile]: in the assay on T. cruzi epimastigotes [2], the “Concentration … to ~99%” value was at least 100 µM and the killing at 100 µM is 100%.

For `CCCCn1c(-c2ccc3ccccc3c2)c(C(C(=O)NO)c2ccccc2)c2ccccc21` (stereo not drawn) [Compound 10, 2-(1-butyl-2-(naphthalen-2-yl)-1H-indol-3-yl)-N-hydroxy-2-phenylacetamide], in the assay with T. cruzi epimastigotes [2], the “Concentration … to ~99%” value was determined as 25 µM and the killing at 100 µM was above 50%. In assay [3], the “toxicity to T. cruzi amastigotes and trypomastigotes” value was “most toxic”.

Take `CN(C)c1ccc(C(C(=O)NO)c2c(-c3ccc4ccccc4c3)[nH]c3ccccc23)cc1` (stereo not drawn) [Compound 11, 2-(4-(dimethylamino)phenyl)-N-hydroxy-2-(2-(naphthalen-2-yl)-1H-indol-3-yl)acetamide]: in the assay with T. cruzi epimastigotes [2], the “Concentration … to ~99%” value came to 100 µM and the killing at 100 µM amounted to 100%.

One may read the MIC as the smallest concentration in the dilution series that meets the test's criterion for growth inhibition. A lower MIC goes with a more susceptible organism. Regarding `O=C(Cn1ccnc1[N+](=O)[O-])NCc1ccccc1` [benznidazole], the MIC against T. cruzi trypomastigotes is above 100 µM; against T. cruzi epimastigotes [4], above 100 µM; in the assay on T. cruzi amastigotes, 100 µM (≈ 26 µg/mL). The “clearance of T. cruzi infection in ARPE cells” value in assay [1] (2 μM, 2 days) was “not cleared from T. cruzi infection”.

Turning to `CC1CS(=O)(=O)CCN1/N=C/c1ccc([N+](=O)[O-])o1` (stereo not drawn) [nifurtimox], the MIC against T. cruzi trypomastigotes amounted to 6.25 µM (≈ 1.8 µg/mL); with T. cruzi epimastigotes [4], 25 µM (≈ 7.18 µg/mL); in the assay on T. cruzi amastigotes, 3.12 µM (≈ 0.896 µg/mL).
